Measurements reported in PubChem BioAssay AID624285 (Broad Institute, 2012).
Values joined by “and” are separate entries in the source; they are usually repeats but may differ in a detail not shown here. Equal entries are not always repeated. Active and inactive are the calls of the source.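 Rule for the calls: active = signal-decreasing dose-response curve whose fitted half-maximal concentration is at or below twice the highest valid tested dose; inconclusive = flat fit at 30 to 70% signal loss, or poor fit; inactive = the rest.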

Test: cytotoxicity in mammalian cells, dose response, cytotoxicity control for PDI inhibitor project, cell-based, 24 h, luminescence, cherry-picked samples (AID 624285)
Conditions: NIH3T3/HeLa viability, CellTiter-Glo ATP luminescence, 24 h; at 35 µM (top of the series)

Compound: O=C(O)CCCCCn1c(SCC(=O)c2ccc(O)c(O)c2)nc2ccsc2c1=O
- activity change, negative = cytotoxicity: -10.6% (inactive)

Compound: O=C(CN1C(=O)NC2(CCCC2)C1=O)Nc1ccc(C(F)(F)F)cc1
- activity change, negative = cytotoxicity: -9.2% (inactive)

Compound: Cc1noc(C)c1S(=O)(=O)Nc1ccc2c(c1)CC(=O)N([C@H](C)CO)C[C@@H](C)[C@@H](CN(C)S(=O)(=O)c1ccc(F)cc1)O2
- activity change, negative = cytotoxicity: -0.682% (inactive)

Compound: C[C@@H]1CN([C@@H](C)CO)C(=O)c2cccc(NS(C)(=O)=O)c2O[C@H]1CN(C)Cc1ccc(Oc2ccccc2)cc1
- activity change, negative = cytotoxicity: -11.5% (inactive) and -6.47% (inactive)

Compound: O=c1cc(CSc2nnnn2-c2ccc(O)cc2)nc2sccn12
- activity change, negative = cytotoxicity: -22.1% (inactive)

Compound: COc1ccccc1NC(=O)c1ccc(NC(=O)COC(=O)c2cccnc2Cl)cc1
- activity change, negative = cytotoxicity: -3.13% (inactive)

Compound: O=C(O)CCc1ccc(-c2cccs2)n1NC(=O)c1ccco1
- activity change, negative = cytotoxicity: 0.695% (inactive)

Compound: O=C(NCCCN1CCOCC1)C(Sc1ccccc1)c1ccccc1 (stereo unspecified)
- activity change, negative = cytotoxicity: -12% (inactive)

Compound: O=C1C[C@@H](c2ccc(O[C@@H]3O[C@H](CO)[C@@H](O)[C@H](O)[C@H]3O)cc2)Oc2cc(O)ccc21
- activity change, negative = cytotoxicity: -5.71% (inactive)

Compound: Cc1noc(C)c1S(=O)(=O)Nc1ccc2c(c1)CC(=O)N([C@H](C)CO)C[C@H](C)[C@H](CN(C)S(=O)(=O)c1ccccc1)O2
- activity change, negative = cytotoxicity: 3.77% (inactive)

Compound: CCCCn1c(N)c(N(CC(C)C)C(=O)c2cc(-c3ccncc3)nc3ccccc23)c(=O)[nH]c1=O
- activity change, negative = cytotoxicity: -9.75% (inactive)

Compound: CCc1ccc(NC(=O)Nc2ccncc2)cc1
- activity change, negative = cytotoxicity: -3.55% (inactive)

Compound: COc1ccccc1NS(=O)(=O)c1ccc(C)c(C(=O)NCC2(N(C)C)CCCCC2)c1
- activity change, negative = cytotoxicity: -11.3% (inactive)

Compound: CC(=O)c1ccc(N2CCN(C(=O)c3ccc4[nH]c(C)c(C)c4c3)CC2)cc1
- activity change, negative = cytotoxicity: -9.89% (inactive)

Compound: N#Cc1c(NCCCO)nc(-c2ccco2)c2c1CCCC2
- activity change, negative = cytotoxicity: -19.8% (inactive)

Compound: Cc1nnc(N/N=C/c2ccc(-c3ccccc3F)o2)n1N
- activity change, negative = cytotoxicity: -8.41% (inactive)

Compound: C[C@@H]1CN([C@H](C)CO)C(=O)c2cc(NC(=O)Cc3cn(C)c4ccccc34)ccc2O[C@H]1CN(C)S(=O)(=O)c1ccc(F)cc1
- activity change, negative = cytotoxicity: -11.7% (inactive) and -2.14% (inactive)

Compound: CCCCN(C(=O)C1=CC=CN2CCS(=O)(=O)N=C12)c1ccccc1
- activity change, negative = cytotoxicity: -2.89% (inactive)

Compound: CC1(C)CC[C@]2(C(=O)O)CC[C@]3(C)C(=CC[C@@H]4[C@@]5(C)CC[C@H](O[C@@H]6O[C@H](C(=O)O)[C@@H](O)[C@H](O[C@@H]7OC[C@H](O)[C@H](O)[C@H]7O)[C@H]6O)C(C)(C)[C@@H]5CC[C@]43C)[C@@H]2C1
- activity change, negative = cytotoxicity: -3.34% (inactive)

Compound: O=c1c(O[C@@H]2O[C@H](CO)[C@@H](O)[C@H](O)[C@H]2O)c(-c2ccc(O)cc2)oc2cc(O)cc(O)c12
- activity change, negative = cytotoxicity: -2.51% (inactive)

Compound: COCC(=O)N(C)C1(c2nnnn2CCOC(=O)Nc2ccc(Cl)cc2)CCCC1
- activity change, negative = cytotoxicity: -5.83% (inactive)

Compound: O=c1[nH]c(C2CCN(S(=O)(=O)c3ccc(C(F)(F)F)cc3)CC2)nc2c1nnn2Cc1ccc(F)cc1
- activity change, negative = cytotoxicity: -22.8% (inactive)

Compound: C=CCn1c(SCC(=O)Nc2ccc(N(C)C)cc2)nnc1-c1cccc(C)c1
- activity change, negative = cytotoxicity: -10.1% (inactive)

Compound: CN(C)C(=O)CSc1nnc([C@H](Cc2ccccc2)NC(=O)OC(C)(C)C)o1
- activity change, negative = cytotoxicity: -9.45% (inactive)

Compound: CC1CCc2sc(C(=O)N/N=C/C3CCCCC3)cc2C1 (stereo unspecified)
- activity change, negative = cytotoxicity: -8.35% (inactive)

Compound: C[C@@H]1O[C@@H](OC[C@H]2O[C@@H](Oc3c(-c4ccc(O)c(O)c4)oc4cc(O)cc(O)c4c3=O)[C@H](O)[C@@H](O)[C@@H]2O)[C@H](O)[C@H](O)[C@H]1O
- activity change, negative = cytotoxicity: -2.56% (inactive)

Compound: O=C(N/N=C/c1cccc([N+](=O)[O-])c1)c1cnccn1
- activity change, negative = cytotoxicity: -7.37% (inactive)

Compound: CC(=O)C1=C(O)C(=O)N(CCc2c[nH]c3ccccc23)C1c1cccc(O)c1 (stereo unspecified)
- activity change, negative = cytotoxicity: -10.4% (inactive)

Compound: CCOC(=O)c1c(CN2CCN(CCO)CC2)n(C)c2cc(Br)c(OC)cc12
- activity change, negative = cytotoxicity: -17.2% (inactive)

Compound: CCOc1ccc(NC(=O)CN(C)C(=O)c2cc(C)nc3ccccc23)cc1OCC
- activity change, negative = cytotoxicity: -13.4% (inactive)

Compound: N#Cc1ccccc1CSc1nnc(Cc2ccccc2)o1
- activity change, negative = cytotoxicity: -7.32% (inactive)

Compound: CCOc1ccc2nc(SCC(=O)c3ccc(Cl)s3)sc2c1
- activity change, negative = cytotoxicity: -9.42% (inactive)

Compound: C[C@@H]1O[C@@H](O[C@H]2[C@H](O)[C@@H](O)[C@H](Oc3c(-c4ccc(O)cc4)oc4cc(O)cc(O)c4c3=O)O[C@@H]2CO)[C@H](O)[C@H](O)[C@H]1O
- activity change, negative = cytotoxicity: -3.49% (inactive)

Compound: Cc1noc(C)c1S(=O)(=O)Nc1ccc2c(c1)CC(=O)N([C@H](C)CO)C[C@H](C)[C@H](CN(C)S(C)(=O)=O)O2
- activity change, negative = cytotoxicity: 1.83% (inactive)

Compound: COc1ccccc1NS(=O)(=O)c1cccc(C(=O)NCC2(N3CCCCC3)CCCCC2)c1
- activity change, negative = cytotoxicity: -10.5% (inactive)

Compound: COc1ccc(OC)c2[nH]c(=O)c(CCNC(=O)C(=O)c3c(C)[nH]c4ccccc34)cc12
- activity change, negative = cytotoxicity: -1.3% (inactive)

Compound: Cc1ccc(NC(=O)NC(=O)CN2CCC(C(N)=O)CC2)c(C)c1
- activity change, negative = cytotoxicity: -4.84% (inactive)

Compound: C[C@H]1CCCC(=O)CCCCCc2cc(O)cc(O)c2C(=O)O1
- activity change, negative = cytotoxicity: -12.8% (inactive)

Compound: COc1cc(C2C(C(C)=O)=C(O)C(=O)N2CCc2c[nH]c3ccccc23)ccc1O (stereo unspecified)
- activity change, negative = cytotoxicity: -5.75% (inactive)

Compound: COc1ccc(/C(C)=N/NC(=O)CNC(=O)c2cccs2)cc1
- activity change, negative = cytotoxicity: -6.13% (inactive)

Compound: COc1cc(-c2oc3cc(O)cc(O)c3c(=O)c2O[C@@H]2O[C@H](COC3O[C@@H](C)[C@H](O)[C@@H](O)[C@H]3O)[C@@H](O)[C@H](O)[C@H]2O)ccc1O (stereo partly specified)
- activity change, negative = cytotoxicity: -2.55% (inactive)

Compound: CCOc1ccccc1CN1CCNC(=O)C1CC(=O)NCc1nccn1CC (stereo unspecified)
- activity change, negative = cytotoxicity: -14.3% (inactive)

Compound: Cc1ccc(O)c(NC(=O)CSc2n[nH]c(-c3ccccc3)n2)c1
- activity change, negative = cytotoxicity: -16.4% (inactive)

Compound: CC1CC(C)CN(C(=O)COC(=O)c2ccc[nH]c2=O)C1 (stereo unspecified)
- activity change, negative = cytotoxicity: -4.68% (inactive)

Compound: CCOC(=O)C1(Cc2ccc(O)cc2)NC(c2ccccc2F)C2C(=O)N(C)C(=O)C21 (stereo unspecified)
- activity change, negative = cytotoxicity: -15.5% (inactive)

Compound: O=C(C[C@H]1C[C@H](C(=O)N2CCCCC2)[C@@]2(CCc3ccccc3)c3[nH]c4cc(-c5ccco5)ccc4c3CCN2C1=O)NCCC1=CCCCC1
- activity change, negative = cytotoxicity: -13% (inactive)

Compound: COc1cccc(/C=N/NC(=O)CNC(=O)c2ccc3c(c2)OCCO3)c1O
- activity change, negative = cytotoxicity: -12.5% (inactive)

Compound: O=C(NC1CCCCC1)C1CCN(S(=O)(=O)c2cccs2)CC1
- activity change, negative = cytotoxicity: -7.67% (inactive)

Compound: CC(C)N(C)C(=O)CCc1nnc(CCc2c[nH]c3ccccc23)o1
- activity change, negative = cytotoxicity: -10.2% (inactive)

Compound: C[C@H]1CN([C@@H](C)CO)C(=O)c2cccc(NS(C)(=O)=O)c2O[C@@H]1CN(C)Cc1ccc(Oc2ccccc2)cc1
- activity change, negative = cytotoxicity: -9.08% (inactive)

Compound: CCOC(=O)c1ccc(NC(=O)C2(c3ccc(Cl)cc3)CCCC2)cc1
- activity change, negative = cytotoxicity: -21.1% (inactive)
